Reference: US6515197B1, “Transgenic mouse expressing a polynucleotide encoding a human ataxin-2 polypeptide” (Cedars-Sinai Medical Center, priority 2000, dated 2003)

System: proteasomal pathway
Test: lactacystin treatment of 293T cells transfected with SCA2 constructs, western blot
Assay type: cell-based
Procedure: To further confirm that the 42 kD fragment was generated preferably by ataxin-2 with an expanded polyQ tract, and to investigate whether mutant ataxin-2 was ubiquitinated, 293T cells were transfected with pEGFP-SCA2(Q22) or pEGFP-SCA2(Q58), followed by treatment with lactacystin for 24 hours to inhibit the proteasomal pathway. Briefly, to generate GFP fusion with SCA2, a full-length SCA2 cDNA including nucleotides 145 to 4,481 (Pulst et al., Nature Genet., 14:269-276 (1996)) was assembled in the pBluescript vector with 22 or 58 CAG repeats. To generate ataxin-2 expression plasmids, the full-length SCA2 cDNA containing either the 22 or 58 CAG repeat was shuttled into the pEGFPC2 (Clontech; Palo Alto Calif.) or pcDNA vectors (Invitrogen; Carlsbad Calif.). These constructs were named pEGFP-SCA22, pEGFP-SCA58, pcDNA-SCA22 or pcDNA-SCA58.
Transient expression of pEGFP-SCA2 constructs was analyzed in 293T cells. To investigate ubiquitination of ataxin-2, 293T cells growing at 60% confluency in 100-mm Petri dishes were transfected with either pEGFP-SCA2 or pcDNA-SCA2 constructs (10 μg) containing either 22 or 58 CAG repeats. Transfected cells were grown overnight and then treated with culture medium with or without lactacystin (10 μM) for 24 h. Cells were incubated with triple detergent buffer (0.5% sodium dodecyl sulfate (SDS), 1% Triton-X 100, 0.5% deoxycholate, 100 mM Tris-HCl, pH 8.0, 150 mM NaCl, and Sigma mammalian protease inhibitors cocktail (Sigma; St. Louis Mo.)) for 1 h on ice with occasional vortexing. Protein extracts were centrifuged at maximum speed in an Eppendorf microfuge at 4° C. for 30 min, and pellets were resuspended in triple detergent buffer. Both protein extract and pellet suspension were stored at −70° C. For western-blot analysis, 100 μg total protein extract per lane was mixed with SDS-polyacrylamide gel electrophoresis (PAGE) sample buffer and incubated for 2 h at 37° C. before loading on to a 4-15% SDS-PAGE gradient gel. Western blots were detected with SCA2A, 1C2 and ubiquitin antibodies.
Western blots were performed on transfected 293 cell protein extracts and insoluble pellets using the GFP or ubiquitin antibody. Untreated cells served as controls. The GFP antibody detected the full-length GFP-ataxin-2 with Q22 and Q58 at 200 kD and an additional band at 70 kD in 293T cells transfected with pEGFP-SCA2(Q58). Neither the 70 kD nor the 200 kD proteins were detected in untransfected 293T protein extracts.
To investigate whether the GFP fusion caused any interference with ubiquitin conjugation, 293T cells were transfected with pcDNA-SCA2(Q22) or pcDNA-SCA2(58) and treated with lactacystin.

CC(=O)N[C@@H](CSC(=O)[C@]1([C@@H](O)C(C)C)NC(=O)[C@H](C)[C@@H]1O)C(=O)O [lactacystin]
levels of GFP-tagged ataxin-2 (293T cells transfected with pEGFP-SCA2(Q22) or (Q58), lactacystin 10 μM for 24 h, versus untreated cells, GFP antibody): increased levels | levels of ubiquitin-conjugated protein complexes (293T cells transfected with pEGFP-SCA2(Q22) or (Q58), lactacystin 10 μM for 24 h, versus untreated cells, ubiquitin antibody): increased levels | total amount of ataxin-2(Q58) (p180) (293T cells transfected with pcDNA-SCA2(58), lactacystin-treated, 1C2 or ubiquitin antibodies): increased | formation of large ataxin-2 aggregates (293T cells transfected with pcDNA-SCA2(Q22) or pcDNA-SCA2(58), lactacystin-treated, western blot): no large ataxin-2 aggregates were found
